Tests used:
Test in all cases: Indoor virulence and combined effect, greenhouse pot test, post-emergence stem and leaf spray, fresh weight inhibition
Type in all cases: in vivo
veronica persica = system: veronica persica
Experimental: (§1) The active ingredients A and B are respectively screened and an indoor combined effect of the composition on weeds was evaluated by an indoor test and a field test, to determine a combined effect of the composition on weeds.
(§2) Quantitative seeds of Poaceae weeds (echinochloa crusgalli, Digitaria sanguinalis, setaria viridis, Eleusine indica, avena fatua, alopecurus japonicus, alopecurus aequalis, Lolium multiflorum) and broadleaf weeds (eclipta prostrata, rorippa dubia, Abutilon theophrasti, conyza canadensis, veronica persica, myosoton aquaticum, polygonum lapathifolium, galium aparine var. tenerum, alisma plantago-aquatica, geranium carolinianum) were sown in paper cup containing nutrient soil with a diameter of 7 cm, covered with soil for 1 cm after sowing. After pressing and watering, they were cultured in a greenhouse according to a conventional method. Poaceae weeds grew to 3˜4 leaf stage, broad-leaved weeds grew to 4˜6 leaf stage, spraying treatment to both stem and leaf was performed; and pre-seedling soil spray treatment was performed 24 hours after sowing. Following an experimental design dosage, a WP-2000 walking spray tower (spindle speed 96 mm/r, spray height 200 mm, effective spray amplitude of nozzle 350 mm, nozzle flow rate 390 mL/min, nozzle walking speed 210 mm/s) was used for the spray treatment. The experiment was repeated three times. After being treated, a sample material is placed in an operation hall, and after the drug solution is naturally dried out, the sample material is placed in a greenhouse and managed according to the conventional method. A reaction of weeds to the drug agent is observed and recorded, and a regularly visual check of a control effect of the drug agent on weeds was performed after the treatment.
(§3) All of original drugs were using acetone as a solvent, being diluted with 0.1 wt % emulsifier of Tween-80 aqueous solution, and being diluted right before using.
(§4) When determining a ratio or content of the active ingredient A and the active ingredient B, it should be measured from characteristics of action of both agents and virulence thereof, as well as the main purpose of use of a formula shall also be considered in. In the present study, on a basis of previous pre-test, the dosages of the active ingredient A and the active ingredient B were set, when being used alone and mixed, as shown in the following table. Water containing no agent, but containing the same solvent and emulsifier was used as a blank control.
(§5) Repeat 4 times for each treatment, 3 pots per treatment each time and 30 weed seeds were sown for each pot.
(§6) Adopting an absolute number survey method, using a blade to cut the whole seedling of surviving weed along soil surface, and weighting the fresh weight of the weed with an analytical balance. For weeds that had died, counting the fresh weight as zero.
(§7) Survey period and frequency: 21 days after the treatment, total 1 investigation.
(§8) The theoretical fresh weight inhibition rate (E0-Expected Efficacy=[…]) of each treatment combination was calculated by Gowing method, and then compared with the measured inhibition rate (E-Observed Efficacy) to evaluate the combined effect type of both on weeds. When E-E0 value was greater than 10%, it was counted as a synergistic effect, less than −10%, it was counted as an antagonistic effect, and between −10%˜10%, it was counted as an additive effect. According to a plurality of factors including an actual control efficacy, a herbicide characteristic, a formula balance and other factors to determine the best ratio. In the formula, X is the fresh weight inhibition rate of the ingredient A at a dosage of P; Y is the fresh weight inhibition rate of the active ingredient B at a dosage of Q.
(§9) The statistical results are shown in Table 1 to Table 44 below, except for those marked clearly as “pre-emergence treatment”, all others are “post-emergence treatment”. […]

eclipta prostrata = system: eclipta prostrata
Experimental: as §1, §2, §3, §4, §5, §6, §7, §8, §9

lolium multiflorum = system: lolium multiflorum
Experimental: as §1, §2, §3, §4, §5, §6, §7, §8, §9

echinochloa crusgalli = system: echinochloa crusgalli
Experimental: as §1
as §2, with “Following an experimental design dosage, a WP-2000 walking spray tower (spindle speed 96 mm/r, spray height 200 mm, effective spray amplitude of nozzle 350 mm, nozzle flow rate 390 mL/min, nozzle walking speed 210 mm/s) was used for the spray treatment.” left out, “method.” for “method. A reaction of weeds to the drug agent is observed and recorded, and a regularly visual check of a control effect of the drug agent on weeds was performed after the treatment.”
as §3, §4, §5, §6, §7
When E-E0 value was greater than 10%, it was counted as a synergistic effect, less than −10%, it was counted as an antagonistic effect, and between −10%˜10%, it was counted as an additive effect. […] In the formula, X is the fresh weight inhibition rate of the ingredient A at a dosage of P; Y is the fresh weight inhibition rate of the active ingredient B at a dosage of Q.

CCCCC(CC)COC(=O)COc1ccc(Cl)cc1Cl [2,4-D-etexyl]
Fresh weight inhibition rate %, B single agent (veronica persica; Table 23, B 195 g a.i./ha): 30.42%
Fresh weight inhibition rate %, B single agent (veronica persica; Table 23, B 275 g a.i./ha): 40.62%
Fresh weight inhibition rate %, B single agent (veronica persica; Table 23, B 350 g a.i./ha): 50.28%

Cc1cc(Cl)ccc1OCC(=O)[O-].[Na+] [MCPA-sodium]
Fresh weight inhibition rate %, B single agent (eclipta prostrata; Table 43, B 80 g a.i./ha): 37.73%
Fresh weight inhibition rate %, B single agent (eclipta prostrata; Table 43, B 160 g a.i./ha): 45.00%

CC(C)N1C(=O)c2ccccc2NS1(=O)=O [bentazone-sodium]
inhibition at 300 g/ha (veronica persica; Veronica persica, 504 h, Table 9, 300 g a.i./ha, post-emergence, 21 days after treatment, read-out: Fresh weight inhibition rate %, B single agent): 30.5%
inhibition at 450 g/ha (veronica persica; Veronica persica, 504 h, Table 9, 450 g a.i./ha, post-emergence, 21 days after treatment, read-out: Fresh weight inhibition rate %, B single agent): 41.9%
inhibition at 525 g/ha (veronica persica; Veronica persica, 504 h, Table 9, 525 g a.i./ha, post-emergence, 21 days after treatment, read-out: Fresh weight inhibition rate %, B single agent): 53.3%

C=CCOC(=O)C(C)(C)OC(=O)c1cc(-n2c(=O)cc(C(F)(F)F)n(C)c2=O)ccc1Cl [butafenacil]
Fresh weight inhibition rate %, B single agent (lolium multiflorum; Table 34, B 7.5 g a.i./ha): 29.47%
Fresh weight inhibition rate %, B single agent (lolium multiflorum; Table 34, B 12.5 g a.i./ha): 36.55%
Fresh weight inhibition rate %, B single agent (lolium multiflorum; Table 34, B 20 g a.i./ha): 43.60%
Fresh weight inhibition rate %, B single agent (lolium multiflorum; Table 34, B 30 g a.i./ha): 53.40%

CC1(C)CON(Cc2ccccc2Cl)C1=O [clomazone]
inhibition at 12.5 g/ha (echinochloa crusgalli; Echinochloa crus-galli, 504 h, Table 17, 12.5 g a.i./ha, post-emergence, 21 days after treatment, read-out: Fresh weight inhibition rate %, B single agent): 8.42%
inhibition at 20 g/ha (echinochloa crusgalli; Echinochloa crus-galli, 504 h, Table 17, 20 g a.i./ha, post-emergence, 21 days after treatment, read-out: Fresh weight inhibition rate %, B single agent): 7.51%
inhibition at 45 g/ha (echinochloa crusgalli; Echinochloa crus-galli, 504 h, Table 17, 45 g a.i./ha, post-emergence, 21 days after treatment, read-out: Fresh weight inhibition rate %, B single agent): 10.9%

N#Cc1cnn(-c2nn3c(c2Cl)CCCC3)c1NCC1CC1 [cyclopyranil]
Fresh weight inhibition rate %, B single agent (echinochloa crusgalli; Table 37, B 12.5 g a.i./ha): 24.73%
Fresh weight inhibition rate %, B single agent (echinochloa crusgalli; Table 37, B 20 g a.i./ha): 25.46%
Fresh weight inhibition rate %, B single agent (echinochloa crusgalli; Table 37, B 30 g a.i./ha): 31.50%
Fresh weight inhibition rate %, B single agent (echinochloa crusgalli; Table 37, B 40 g a.i./ha): 39.05%

CNC.COc1c(Cl)ccc(Cl)c1C(=O)O [dicamba-dimethylammonium]
Fresh weight inhibition rate %, B single agent (veronica persica; Table 24, B 40 g a.i./ha): 11.68%
Fresh weight inhibition rate %, B single agent (veronica persica; Table 24, B 60 g a.i./ha): 25.89%
Fresh weight inhibition rate %, B single agent (veronica persica; Table 24, B 80 g a.i./ha): 37.82%
Fresh weight inhibition rate %, B single agent (veronica persica; Table 24, B 100 g a.i./ha): 38.58%

c1cc[n+]2c(c1)-c1cccc[n+]1CC2 [diquat]
Fresh weight inhibition rate %, B single agent (lolium multiflorum; Table 27, B 300 g a.i./ha): 31.27%
Fresh weight inhibition rate %, B single agent (lolium multiflorum; Table 27, B 400 g a.i./ha): 36.44%
Fresh weight inhibition rate %, B single agent (lolium multiflorum; Table 27, B 495 g a.i./ha): 41.37%

C#CCN1C(=O)COc2cc(F)c(N3C(=O)C4=C(CCCC4)C3=O)cc21 [flumioxazin]
Fresh weight inhibition rate %, B single agent (eclipta prostrata; Table 11, B 8 g a.i./ha): 24.97%
Fresh weight inhibition rate %, B single agent (eclipta prostrata; Table 11, B 16 g a.i./ha): 39.68%
Fresh weight inhibition rate %, B single agent (eclipta prostrata; Table 11, B 20 g a.i./ha): 45.24%
Fresh weight inhibition rate %, B single agent (eclipta prostrata; Table 11, B 30 g a.i./ha): 54.24%

CCOC(=O)COC(=O)c1cc(Oc2ccc(C(F)(F)F)cc2Cl)ccc1[N+](=O)[O-] [fluoroglycofen-ethyl]
Fresh weight inhibition rate %, B single agent (eclipta prostrata; Table 12, B 8 g a.i./ha): 11.99%
Fresh weight inhibition rate %, B single agent (eclipta prostrata; Table 12, B 16 g a.i./ha): 27.44%
Fresh weight inhibition rate %, B single agent (eclipta prostrata; Table 12, B 20 g a.i./ha): 42.03%

CCCCCCC(C)OC(=O)COc1nc(F)c(Cl)c(N)c1Cl (stereo not drawn) [fluroxypyr-meptyl]
Fresh weight inhibition rate %, B single agent (eclipta prostrata; Table 42, B 32 g a.i./ha): 30.91%
Fresh weight inhibition rate %, B single agent (eclipta prostrata; Table 42, B 40 g a.i./ha): 34.55%
Fresh weight inhibition rate %, B single agent (eclipta prostrata; Table 42, B 60 g a.i./ha): 39.55%
Fresh weight inhibition rate %, B single agent (eclipta prostrata; Table 42, B 80 g a.i./ha): 73.18%

CP(=O)(O)CC[C@H](N)C(=O)O.N [glufosinate-P-ammonium]
Fresh weight inhibition rate %, B single agent (lolium multiflorum; Table 20, B 200 g a.i./ha): 8.61%
Fresh weight inhibition rate %, B single agent (lolium multiflorum; Table 20, B 300 g a.i./ha): 74.40%
Fresh weight inhibition rate %, B single agent (lolium multiflorum; Table 20, B 350 g a.i./ha): 78.23%
Fresh weight inhibition rate %, B single agent (lolium multiflorum; Table 20, B 400 g a.i./ha): 83.04%

CP(=O)(O)CCC(N)C(=O)O (stereo not drawn) [glufosinate-ammonium]
Fresh weight inhibition rate %, B single agent (lolium multiflorum; Table 19, B 120 g a.i./ha): 2.63%
Fresh weight inhibition rate %, B single agent (lolium multiflorum; Table 19, B 210 g a.i./ha): 12.20%
Fresh weight inhibition rate %, B single agent (lolium multiflorum; Table 19, B 300 g a.i./ha): 27.99%
Fresh weight inhibition rate %, B single agent (lolium multiflorum; Table 19, B 400 g a.i./ha): 54.64%

COCc1cnc(C2=NC(C)(C(C)C)C(=O)N2)c(C(=O)[O-])c1.[Na+] (stereo not drawn) [imazamox-sodium]
Fresh weight inhibition rate %, B single agent (echinochloa crusgalli; Table 3, 15 g a.i./ha, post-emergence, 21 days after treatment): 2.52%
Fresh weight inhibition rate %, B single agent (echinochloa crusgalli; Table 3, 20 g a.i./ha, post-emergence, 21 days after treatment): 13.41%

COc1cnc(OC)n2nc(NS(=O)(=O)c3c(OCC(F)F)cccc3C(F)(F)F)nc12 [penoxsulam]
inhibition at 5 g/ha (echinochloa crusgalli; Echinochloa crus-galli, 504 h, Table 2, 5 g a.i./ha, post-emergence, 21 days after treatment, read-out: Fresh weight inhibition rate %, B single agent): 7.31%
inhibition at 10 g/ha (echinochloa crusgalli; Echinochloa crus-galli, 504 h, Table 2, 10 g a.i./ha, post-emergence, 21 days after treatment, read-out: Fresh weight inhibition rate %, B single agent): 18.3%

Nc1c(Cl)c(Cl)nc(C(=O)O)c1Cl [picloram-potassium, picloram]
Fresh weight inhibition rate %, B single agent (veronica persica; Table 26, B 450 g a.i./ha): 42.89%
Fresh weight inhibition rate %, B single agent (veronica persica; Table 26, B 525 g a.i./ha): 47.46%
Fresh weight inhibition rate %, B single agent (veronica persica; Table 26, B 600 g a.i./ha): 50.25%
Fresh weight inhibition rate %, B single agent (veronica persica; Table 26, B 600 g a.i./ha (row 2 + 600)): 50.25%

COC(=O)CCNC(=O)C(C)Sc1cc(-n2c(=O)cc(C(F)(F)F)n(C)c2=O)c(F)cc1Cl (stereo not drawn) [tiafenacil]
Fresh weight inhibition rate %, B single agent (lolium multiflorum; Table 38, B 10 g a.i./ha): 8.27%
Fresh weight inhibition rate %, B single agent (lolium multiflorum; Table 38, B 15 g a.i./ha): 15.26%
Fresh weight inhibition rate %, B single agent (lolium multiflorum; Table 38, B 20 g a.i./ha): 22.42%

broclozone
Fresh weight inhibition rate %, B single agent (echinochloa crusgalli; Table 44, B 50 g a.i./ha): 5.86%
Fresh weight inhibition rate %, B single agent (echinochloa crusgalli; Table 44, B 80 g a.i./ha): 16.30%
Fresh weight inhibition rate %, B single agent (echinochloa crusgalli; Table 44, B 120 g a.i./ha): 33.00%
Fresh weight inhibition rate %, B single agent (echinochloa crusgalli; Table 44, B 150 g a.i./ha): 44.95%

— patent US20250176550A1, “HERBICIDE COMPOSITION OF URACIL COMPOUND CONTAINING CARBOXYLATE FRAGMENT AND THE USE THEREOF” (Jiangsu Flag Chemical Industry Co., Ltd., priority 2022, published 2025)
